Patent US20240309043A1, “THERAPEUTICALLY ACTIVE STEROIDAL DERIVATIVES” (Organon R&D Finland Ltd., priority 2017, published 2024)

Columns and labels:
Assay type in all cases: biochemical
[1] = target: T1, recombinant human 17β-HSD1 (Homo sapiens, UniProt P14061); experiment: Inhibition of recombinant human 17β-HSD1; settings: inhibitor 100 nM; 30 nM estrone, 1 mM NADPH, 30 min RT
T1 construct: made in house; host or cells: Sd9 (Sf9) insect cells, baculovirus (Bac to Bac Expression System)
T1 sequence (P14061 1-328): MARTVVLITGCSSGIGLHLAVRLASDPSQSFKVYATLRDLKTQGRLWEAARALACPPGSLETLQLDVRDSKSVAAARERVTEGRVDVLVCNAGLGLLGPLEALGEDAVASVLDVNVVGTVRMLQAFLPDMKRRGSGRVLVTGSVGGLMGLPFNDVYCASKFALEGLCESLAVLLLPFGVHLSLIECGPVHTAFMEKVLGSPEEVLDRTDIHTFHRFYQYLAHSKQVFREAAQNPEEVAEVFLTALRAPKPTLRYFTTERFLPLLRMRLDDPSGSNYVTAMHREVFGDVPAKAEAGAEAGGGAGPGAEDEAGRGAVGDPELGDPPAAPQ
Description: 17β-HSD1 production and isolation: Recombinant baculovirus was generated by the “Bac to Bac Expression System” (Invitrogen). Recombinant bacmid was transfected to Sd9 insect cells using “Cellfectin Reagent” (Invitrogen). 60 h later cells were harvested; the microsomal fraction was isolated as described by Puranen, T. J., Poutanen, M. H., Peltoketo, H. E., Vihko, P. T. and Vihko, R. K. (1994) Site-directed mutagenesis of the putative active site of human 17 β-hydroxysteroid dehydrogenase type 1. Biochem. J. 304: 289-293. Aliquots were stored frozen until determination of enzymatic activity.
Assay—Inhibition of recombinant human 17β-HSD1: Recombinant protein (1 μg/ml) was incubated in 20 mM KH2PO4 pH 7.4 with 30 nM estrone (including 800 000 cpm/ml of ^3H-estrone) and 1 mM NADPH for 30 min at RT, in the presence of the potential inhibitor at concentrations 1 μM or 0.1 μM. Inhibitor stock solutions were prepared in DMSO. Final concentration of DMSO was adjusted to 1% in all samples. The enzyme reaction was stopped by addition of 10% trichloroacetic acid (final concentration). Samples were centrifuged in a microtiter plate at 4000 rpm for 10 min. Supernatants were applied to reverse phase HPLC on a Waters Symmetry C18 column, equipped with a Waters Sentry Guard column. Isocratic HPLC runs were performed at RT at a flow rate of 1 ml/min in acetonitrile:water 48:52 as running solvent. Radioactivity was monitored in the eluate by a Scintillation Analyzer. Total radioactivity for estrone and estradiol were determined in each sample and percent conversion of estrone to estradiol was calculated according to the following formula:
(§1) [formula] Percent inhibition was calculated flowingly: % inhibition=100−% conversion

[2] = target: T2, recombinant human 17β-HSD2 (Homo sapiens, UniProt P37059); experiment: Inhibition of recombinant human 17β-HSD2; settings: inhibitor 1 μM; 50 nM estradiol, 1 mM NADH, 30 min RT
T2 construct: made in house; host or cells: Sd9 (Sf9) insect cells, baculovirus (Bac to Bac Expression System)
T2 sequence (P37059 1-387): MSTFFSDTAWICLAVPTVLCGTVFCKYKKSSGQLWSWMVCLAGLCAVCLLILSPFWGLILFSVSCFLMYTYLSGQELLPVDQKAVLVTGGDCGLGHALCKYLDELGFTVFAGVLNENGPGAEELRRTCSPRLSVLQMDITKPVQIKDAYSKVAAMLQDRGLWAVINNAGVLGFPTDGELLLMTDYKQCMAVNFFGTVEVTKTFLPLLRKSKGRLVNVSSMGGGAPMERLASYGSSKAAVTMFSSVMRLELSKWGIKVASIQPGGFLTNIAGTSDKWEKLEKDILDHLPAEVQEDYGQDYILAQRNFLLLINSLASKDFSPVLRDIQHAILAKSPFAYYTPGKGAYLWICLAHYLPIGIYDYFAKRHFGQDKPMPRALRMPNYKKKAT
Description: 17β-HSD2 production and isolation: Similarly to 17β-HSD1 the Recombinant baculovirus was generated by the “Bac to Bac Expression System” (Invitrogen). Recombinant bacmid was transfected to Sd9 insect cells using “Cellfectin Reagent” (Invitrogen). 60 h later cells were harvested and supernatant were fractionated by the following protocol: • cells were dissolved into 40 ml of A-buffer (40 mM TRIS, pH 8.0, 20% glycerol, 20 μM NAD, 0.4 mM PMSF, 150 mM NaCl, 0.5% dodecyl-β-maltoside+protease inhibitor cocktail) • cells were sonicated • lysate was incubated on ice for 15 min • lysate was centrifuged 5000 rpm 15 min, +4° C. • centrifugation of the supernatant 180 000 g 30 min, +4° C. • pellet was dissolved into 8 ml of A-buffer • not resuspended material was removed by centrifugation 5000 rpm min, +4° C. • the clear supernatant was divided into 100 μl aliquots and were stored frozen until determination of enzymatic activity.
The amount of 17β-HSD2 was analysed by immunoblotting and total protein concentration of each extract batch was determined.
Assay—Inhibition of recombinant human 17β-HSD2: Recombinant protein (4 μg/ml) was incubated in 20 mM KH2PO4 pH 8.5 with 50 nM estradiol (including 800 000 cpm/ml of ^3H-estradiol) and 1 mM NADH for 30 min at RT, in the presence of the potential inhibitor at concentrations 1 μM or 0.1 μM. Inhibitor stock solutions were prepared in DMSO. Final concentration of DMSO was adjusted to 1% in all samples. The enzyme reaction was stopped by addition of 10% trichloroacetic acid (final concentration). Samples were centrifuged in a microtiter plate at 4000 rpm for 10 min. Supernatants were applied to reverse phase HPLC on a Waters Symmetry C18 column, equipped with a Waters Sentry Guard column. Isocratic HPLC runs were performed at RT at a flow rate of 1 ml/min in acetonitrile:water 48:52 as running solvent. Radioactivity was monitored in the eluate by a Scintillation Analyzer. Total radioactivity for estrone and estradiol were determined in each sample and percent conversion of estradiol to estrone was calculated according to the following formula:
as §1

[3] = test system: HSD1 enzyme that is expressed in rabbit placenta tissue; experiment: Inhibition of E1 to E2 conversion in rabbit placenta tissue homogenate; settings: inhibitor 100 nM, 30 nM estrone, 30 min
Description: The assay is based on an enzymatic reaction where HSD1 enzyme that is expressed in rabbit placenta tissue converts its natural substance estrone (E1) to estradiol (E2) in the presence of a co-factor β-NADPH.
Homogenization of rabbit placenta tissue: Weight a piece of the frozen tissue into a Precellys ck28 bead tube. Add buffer solution (20 mM KH2PO4 with 1 mM EDTA, pH 7,4) in 1:2 ratio (e.g. 300 mg of tissue:600 μl reaction buffer solution). Insert the bead tubes to homogenizer and homogenize 2×30 s. 6000 rpm. Centrifugated 5 min., 2600 rpm at +4° C. and collect supernatant. Aliquots of homogenate are stored in −80° C.
Assay—Inhibition of E1 to E2 conversion in rabbit placenta tissue: The reaction takes place in a buffer solution (20 mM KH2PO4 with 1 mM EDTA, pH 7,4), including appropriate amount of rabbit placenta homogenate, co-factor (1 mM β-NADPH), Substrate (30 nM estrone), labelled substrate as tracer (5 nM [^3H]-estrone). During a 30-minute incubation part of the estrone is converted to estradiol. The reaction is stopped by lowering the pH to 1 with 10% trichloro acetic acid (TCA). The substrate and conversion products are analyzed by HPLC and a Scintillation counter analyzer. Total radioactivity for estrone and estradiol were determined in each sample and percent conversion of estrone to estradiol was calculated according to the following formula:
Percent inhibition was calculated flowingly: % inhibition=100−% conversion.

SMILES | inhibition at 0.1 µM [1] [%] | inhibition at 1 µM [2] [%] | Rabbit placenta inhibition % @100 nM [3] [%]
C[C@]12CCC3c4cccc(F)c4CCC3C1[C@H](CCC(=O)NC1COC1)C/C2=N\O (stereo partly drawn) [Compound 10, 3-((13S,15R,E)-4-fluoro-17-(hydroxyimino)-13-methyl-7,8,9,11,12,13,14,15,16,17-decahydro-6H-cyclopenta[a]phenanthren-15-yl)-N-(oxetan-3-yl)propanamide] | 30 | 5 | 18
CN(C(=O)CC[C@@H]1C/C(=N\O)[C@@]2(C)CCC3c4cccc(F)c4CCC3C12)C1COC1 (stereo partly drawn) [Compound 12, 3-((13S,15R,E)-4-fluoro-17-(hydroxyimino)-13-methyl-7,8,9,11,12,13,14,15,16,17-decahydro-6H-cyclopenta[a]phenanthren-15-yl)-N-methyl-(oxetan-3-yl)propanamide] | 73 | 2 | –
C[C@]12CCC3c4cccc(F)c4CCC3C1[C@H](CCC(=O)N1CCCC1)C/C2=N\O (stereo partly drawn) [Compound 14, 3-((13S,15R,E)-4-fluoro-17-(hydroxyimino)-13-methyl-7,8,9,11,12,13,14,15,16,17-decahydro-6H-cyclopenta[a]phenanthren-15-yl)-1-(pyrrolidin-1-yl)propan-1-one] | 53 | 4 | 14
Cc1ccc(NC(=O)CC[C@@H]2C/C(=N\O)[C@@]3(C)CCC4c5cccc(F)c5CCC4C23)nn1 (stereo partly drawn) [Compound 16, 3-((13S,15R,E)-4-fluoro-17-(hydroxyimino)-13-methyl-7,8,9,11,12,13,14,15,16,17-decahydro-6H-cyclopenta[a]phenanthren-15-yl)-N-(6-methylpyridazin-3-yl) propanamide] | 79 | 9 | 81
C[C@]12CCC3c4cccc(F)c4CCC3C1[C@H](CCC(=O)Nc1nncs1)C/C2=N\O (stereo partly drawn) [Compound 18, 3-((13S,15R,E)-4-fluoro-17-(hydroxyimino)-13-methyl-7,8,9,11,12,13,14,15,16,17-decahydro-6H-cyclopenta[a]phenanthren-15-yl)-N-(1,3,4-thiadiazol-2-yl)propanamide] | 68 | 14 | 62
C[C@]12CCC3c4ccc(F)cc4CCC3C1[C@H](CCC(=O)Nc1cccnn1)C/C2=N\O (stereo partly drawn) [Compound 34, 3-((13S,15R,E)-3-fluoro-17-(hydroxyimino)-13-methyl-7,8,9,11,12,13,14,15,16,17-decahydro-6H-cyclopenta[a]phenanthren-15-yl)-N-(pyridazin-3-yl)propanamide] | 23 | 9 | –
C[C@]12CCC3c4ccc(F)cc4CCC3C1[C@H](CCC(=O)Nc1nncs1)C/C2=N\O (stereo partly drawn) [Compound 38, 3-((13S,15R,E)-3-fluoro-17-(hydroxyimino)-13-methyl-7,8,9,11,12,13,14,15,16,17-decahydro-6H-cyclopenta[a]phenanthren-15-yl)-N-(1,3,4-thiadiazol-2-yl)propanamide] | 21 | 3 | –
C[C@]12CCC3c4cccc(F)c4CCC3C1[C@H](CCC(=O)Nc1ccccn1)C/C2=N\O (stereo partly drawn) [Compound 138, 3-((13S,15R,E)-4-fluoro-17-(hydroxyimino)-13-methyl-7,8,9,11,12,13,14,15,16,17-decahydro-6H-cyclopenta[a]phenanthren-15-yl)-N-(pyridin-2-yl)propanamide] | 89 | – | 36
C[C@]12CCC3c4cccc(F)c4CCC3C1[C@H](CCC(=O)Nc1cc3c([nH]c1=O)CCCC3)C/C2=N\O (stereo partly drawn) [Compound 178, 3-((13S,15R,E)-4-fluoro-17-(hydroxyimino)-13-methyl-7,8,9,11,12,13,14,15,16,17-decahydro-6H-cyclopenta[a]phenanthren-15-yl)-N-(2-oxo-12,5,6,7,8-hexahydroguinolin-3-yl)propanamide] | 95 | 9 | –
